Reference: patent US20170008888A1 (KYORIN PHARMACEUTICAL CO., LTD., priority 2014, published 2017)

Assays:
[1] = test system: AurB or AurC; assay: Probe-based (AX9989) kinase profiling in Jurkat lysate: AurB or AurC; format: binding
In short: (§1)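 Jurkat lysate, HEPES pH 7.5 buffer + 20 mM MnCl2; cpd 15 min RT; AX9989 ATP probe 5 μM final, RT. Trypsin digest, streptavidin capture, LC/MS; % inhibition vs vehicle from labeled-peptide signal.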

[2] = biological target: T1, ACK (Homo sapiens, UniProt Q07912); assay: Probe-based (AX9989) kinase profiling in Jurkat lysate: ACK; format: binding; details: read-out: ACK Inhibition % at indicated screening concentration; for inhibition at 10 µM: screening concentration 10 μM; for inhibition at 1 µM: screening concentration 1 μM
T1 construct: screened for activity against several kinases in Jurkat cells; endogenous in cells; host or cells: Jurkat cell lysate
In short: as §1

[3] = biological target: T2, recombinant human ERK5 catalytic domain (Homo sapiens, UniProt Q13164); assay: Recombinant human ERK5 radiometric (HotSpot) assay; format: biochemical; details: 10 μM ATP, 20 μM myelin basic protein substrate; read-out: rhERK5 IC50
T2 construct: Recombinant human ERK5 catalytic domain radiometric assays; purchased Reaction Biology, Corp (Malvern, Pa.), which ran the assay as a service
In short: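 Radiometric filter-binding HotSpot assay using [γ-33P]-ATP tracer with 10 μM cold ATP and 20 μM myelin basic protein substrate. Compounds tested in 10-point, ⅓-fold serial dilution from 20 μM; […].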

[4] = test system: human PBMCs; assay: Human PBMC TNF-α response to endotoxin (ELISA); format: cell-based; details: 0.1 μg/ml LPS 16 h, read-out: EC50 for the inhibition of the human PBMC TNF-α response to endotoxin, ave. ± S.D.
In short: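 PBMCs at 2e6 cells/ml in RPMI 1640 with 10% charcoal-dextran-treated FBS were pre-treated 1 h at 37 °C with compound (4-point 1:5 dilution from 10 μM). Stimulation with 0.1 μg/ml E. coli 0111:B4 LPS for 16 h; TNF-α measured by ELISA (A450) in 25-fold diluted supernatant.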

[5] = biological target: T3, BRD4 bromodomain domain I [BRD4(1)] (Homo sapiens, UniProt O60885); assay: BRD4 bromodomain domain 1 inhibition assay (TR-FRET); format: binding; details: for inhibition at 10 µM: screening concentration 10 μM
T3 construct: BRD4 bromodomain domain I [BRD4(1)]; purchased Cayman Chemicals
In short: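 0.5% DMSO, in triplicate, using Cayman BRD4(1) TR-FRET protocol with slight modification. 670/620 nm ratio normalized to 10 μM JQ1, with DMSO control set as 0% inhibition.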

T1 sequence (Q07912 whole entry): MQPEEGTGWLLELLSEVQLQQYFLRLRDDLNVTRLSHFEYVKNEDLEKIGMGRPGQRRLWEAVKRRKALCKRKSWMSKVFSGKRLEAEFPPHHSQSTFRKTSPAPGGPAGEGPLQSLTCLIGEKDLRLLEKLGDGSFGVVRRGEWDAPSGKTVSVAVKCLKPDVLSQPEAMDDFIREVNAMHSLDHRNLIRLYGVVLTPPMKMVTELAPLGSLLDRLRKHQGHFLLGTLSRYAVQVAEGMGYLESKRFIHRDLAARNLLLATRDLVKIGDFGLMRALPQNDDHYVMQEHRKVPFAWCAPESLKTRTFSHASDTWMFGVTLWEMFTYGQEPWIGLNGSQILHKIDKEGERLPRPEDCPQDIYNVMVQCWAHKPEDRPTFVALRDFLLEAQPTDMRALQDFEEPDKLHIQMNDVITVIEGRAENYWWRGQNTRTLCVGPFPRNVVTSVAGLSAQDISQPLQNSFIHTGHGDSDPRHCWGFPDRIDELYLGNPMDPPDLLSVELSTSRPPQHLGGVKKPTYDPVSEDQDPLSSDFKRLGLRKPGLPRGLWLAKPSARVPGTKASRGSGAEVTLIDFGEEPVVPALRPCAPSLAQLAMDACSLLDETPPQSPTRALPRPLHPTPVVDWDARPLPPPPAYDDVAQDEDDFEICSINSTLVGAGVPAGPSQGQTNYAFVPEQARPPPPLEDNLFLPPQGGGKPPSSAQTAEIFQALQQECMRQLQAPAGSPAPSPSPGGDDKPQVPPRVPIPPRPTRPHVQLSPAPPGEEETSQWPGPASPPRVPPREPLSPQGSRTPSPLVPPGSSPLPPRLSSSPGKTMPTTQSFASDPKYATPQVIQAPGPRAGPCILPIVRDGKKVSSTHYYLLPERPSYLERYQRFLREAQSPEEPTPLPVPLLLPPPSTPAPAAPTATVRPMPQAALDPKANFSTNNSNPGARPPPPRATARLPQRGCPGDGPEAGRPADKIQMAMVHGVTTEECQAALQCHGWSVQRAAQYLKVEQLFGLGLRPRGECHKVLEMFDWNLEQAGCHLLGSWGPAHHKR
T2 sequence (Q13164 55-347 limits assumed): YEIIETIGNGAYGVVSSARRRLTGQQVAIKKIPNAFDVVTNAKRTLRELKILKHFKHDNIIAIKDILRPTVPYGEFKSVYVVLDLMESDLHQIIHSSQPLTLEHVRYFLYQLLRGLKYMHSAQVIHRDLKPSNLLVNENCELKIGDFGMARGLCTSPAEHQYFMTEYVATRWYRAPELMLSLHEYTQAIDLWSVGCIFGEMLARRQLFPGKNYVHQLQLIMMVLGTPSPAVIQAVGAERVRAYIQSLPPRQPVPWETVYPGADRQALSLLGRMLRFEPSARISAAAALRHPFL

SMILES	AurB or AurC Inhibition % at indicated screening concentration ([1]; screening concentration 10 μM)	inhibition at 10 µM [2] [%]	IC50 [3] [nM]	EC50 [4] [nM]	IC50 [5] [nM]	AurB or AurC Inhibition % at indicated screening concentration ([1]; screening concentration 1 μM)	inhibition at 1 µM [2] [%]	inhibition at 10 µM [5] [%]	inhibition at 5 µM ([5]; Screening concentration 5 μM) [%]
COc1cccc2c1Oc1cc(N[C@H]3CC[C@H](O)CC3)ncc1N(C)C2=O [Compound T95]	E (E is ≦35%)	≤ 35	> 200	1380 ± 1710	2000 to 5000				
CCOc1cc(C(=O)N[C@H]2CC[C@H](O)CC2)ccc1Nc1cc2c(cn1)N(C)C(=O)c1ccccc1N2C [Compound T62]			> 200	490 ± 100		E (E is ≦35%)	≤ 35	70 to 85	
CC(C)Oc1cc(C(=O)N2CC[C@@H](NCCF)C2)ccc1Nc1cc2c(cn1)N(C)C(=O)c1ccccc1N2C [Compound T50]			50 to 200	630		E (E is ≦35%)	≤ 35	> 85	
CC(C)Oc1cc(C(=O)N2CCC[C@H](O)C2)ccc1Nc1cc2c(cn1)N(C)C(=O)c1ccccc1N2C [Compound T48]	E (E is ≦35%)	≤ 35	50 to 200	740				70 to 85	
CCOc1cc(C(=O)N2CCC(NC3CCN(C)CC3)C2)ccc1Nc1cc2c(cn1)N(C)C(=O)c1ccccc1N2C (centres unmarked) [Compound T42]			50 to 200	680 ± 450		E (E is ≦35%)	≤ 35	> 85	
CCOc1cc(C(=O)N2CCN(CCN(C)C)CC2)ccc1Nc1cc2c(cn1)N(C)C(=O)c1ccccc1N2C [Compound T14]			20 to 50	720 ± 50		E (E is ≦35%)	≤ 35	> 85	
CCOc1cc(C(=O)N2CCN(C3CCN(C)CC3)CC2)ccc1Nc1cc2c(cn1)N(C)C(=O)c1c(F)cccc1O2 [Compound T102]	E (E is ≦35%)	≤ 35	20 to 50	290 ± 280	< 2000				
CCOc1cc(C(=O)N2CCC(N3CC[C@@H](O)C3)CC2)ccc1Nc1cc2c(cn1)N(C)C(=O)c1ccccc1N2C [Compound T10]			20 to 50	650		E (E is ≦35%)	≤ 35	> 85	
CCOc1cc(C(=O)N2CCN(CCN3CCOCC3)CC2)ccc1Nc1cc2c(cn1)N(C)C(=O)c1ccccc1N2C [Compound T15]			20 to 50	800 ± 270		E (E is ≦35%)	≤ 35	> 85	
CCOc1cc(C(=O)N2CCC(N3CCCN(C)CC3)CC2)ccc1Nc1cc2c(cn1)N(C)C(=O)c1ccccc1N2C [Compound T31]			< 20	490		E (E is ≦35%)	≤ 35	> 85	
CCOc1cc(C(=O)N2CCN(c3cccnc3)CC2)ccc1Nc1cc2c(cn1)N(C)C(=O)c1occc1N2C [Compound T56]			< 20	300		E (E is ≦35%)	≤ 35	70 to 85	
CCOc1cc(C(=O)N2CC[C@H](C#N)C2)ccc1Nc1cc2c(cn1)N(C)C(=O)c1ccccc1N2C [Compound T22]			50 to 200	820 ± 140		E (E is ≦35%)	≤ 35	< 70	
CCOc1cc(C(=O)N2CCN(C3CCN(C)CC3)CC2)ccc1Nc1cc2c(cn1)N(C)C(=O)c1ccccc1O2 [Compound T98]	E (E is ≦35%)	≤ 35	20 to 50	810 ± 920	2000 to 5000				
CC(C)Oc1cc(C(=O)N2CCN(C3CCN(C)CC3)CC2)ccc1Nc1cc2c(cn1)N(C)C(=O)c1ccccc1N2C [Compound T49]			50 to 200	300 ± 120		E (E is ≦35%)	≤ 35	> 85	
CCOc1cc(C(=O)N2CC[C@@H](N3CCN(C)CC3)C2)ccc1Nc1cc2c(cn1)N(C)C(=O)c1ccccc1N2C [Compound T20]			20 to 50	460 ± 140		E (E is ≦35%)	≤ 35		> 85
CN1CCN(C2CCN(C(=O)c3ccc(Nc4cc5c(cn4)N(C)C(=O)c4ccccc4N5C)c(OCCF)c3)CC2)CC1 [Compound T34]			< 20	490 ± 40		E (E is ≦35%)	≤ 35	70 to 85	
CCOc1cc(C(=O)N2CC[C@@H](NCCF)C2)ccc1Nc1cc2c(cn1)N(C)C(=O)c1ccccc1N2C [Compound T9]			20 to 50	590		E (E is ≦35%)	≤ 35	70 to 85	
CN1C(=O)c2c(F)ccc(F)c2Oc2cc(N[C@H]3CC[C@H](O)CC3)ncc21 [Compound T97]	E (E is ≦35%)	≤ 35	> 200	430 ± 450	2000 to 5000				
CN1C(=O)c2c(F)cccc2Oc2cc(N[C@H]3CC[C@H](O)CC3)ncc21 [Compound T92]	D (D is >35% to ≦50%)	≤ 35	50 to 200	440 ± 290	< 2000				
